From PubChem BioAssay AID743175 (Broad Institute, 2013) come the findings set out here.

Activity calls are given as the source filed them. No rule for the calls is given here.

The first test relates to Mycobacterium tuberculosis non-replicating, growth inhibition plate reader. As to the kind of experiment: inhibitor activity on non-replicating M. tuberculosis, dose response, plate reader, dry powder (AID 743175).
Conditions: not given
Regarding `COC(=O)COc1ccc2c(=O)c(Oc3ccccc3)c(C)oc2c1`, the AC90 is > 38 µM (inactive).

Regarding `COc1ccccc1C#Cc1ccc([C@@H]2[C@@H](C#N)N(C(=O)C3CC3)[C@H]2CO)cc1`, the AC90 is > 26 µM (inactive).

For the compound `Brc1c(-c2ccc3c(c2)OCO3)nc2ncccn12`, the AC90 was 32.3 µM.

Take `CCOC(=O)COc1ccc2c(=O)c(-c3ccccc3)coc2c1`: the AC90 is > 38 µM (inactive).

As to `NC1CCN(c2c(F)cc3c(=O)c(C(=O)O)cn(C4CC4)c3c2Cl)C1` (stereo unspecified), the AC90 is 2.94 µM.

Take `c1ccc(Nc2nc(-c3ccccn3)cs2)cc1`: the AC90 is > 38 µM (inactive).

In the case of `COc1ccccc1C#Cc1ccc([C@H]2[C@H](C#N)N(C(=O)C3CC3)[C@H]2CO)cc1`, the AC90 was > 26 µM (inactive).

With `O=C(COc1c(Br)cc(Br)c2cccnc12)N1CCCCC1`, the AC90 was 6.33 µM.

For `CCCCN(C/C=C/c1ccccc1OC)Cc1ccccc1`, the AC90 is > 38 µM (inactive).

For the compound `CCOC(=O)c1sc(NC(=O)CCN2CCOCC2)c(C(=O)OCC)c1C`, the AC90 is > 38 µM (inactive).

Turning to `COc1ccccc1C#Cc1ccc([C@@H]2[C@H](C#N)N(C(=O)C3CC3)[C@H]2CO)cc1`, the AC90 was > 23.5 µM (inactive).

With `CCOC(=O)c1cc(-c2csc(COc3ccccc3)n2)on1`, the AC90 was > 38 µM (inactive).

`COc1ccccc1C#Cc1ccc([C@H]2[C@@H](CO)N(C(=O)C3CC3)[C@H]2C#N)cc1`: the AC90 is > 26 µM (inactive).

Turning to `CCOCCOC(=O)COc1ccc2c(-c3ccccc3)cc(=O)oc2c1`, the AC90 was > 38 µM (inactive).

Consider `O=C(NC1CC2CCC1C2)C1COc2ccccc2O1` (stereo unspecified), for which the AC90 is > 38 µM (inactive).

As to `CCc1ccc(OCCCC(=O)NCc2ccco2)cc1`, the AC90 is > 38 µM (inactive).

For `Cc1cccc(C)c1N1C(=O)CC(N2CCSCC2)C1=O` (stereo unspecified), the AC90 is 5.72 µM.

Turning to `CCOC(=O)COc1ccc2c(c1)C(=O)CC1(CCCCC1)O2`, the AC90 was > 38 µM (inactive).

`Cc1nnc(NC(=O)c2ccc3ccccc3c2)o1`: the AC90 was 1.34 µM.

Regarding `O=C(NCc1cccs1)c1ccc(Br)o1`, the AC90 was > 38 µM (inactive).

For `CCOC(=O)COc1ccc(C(=O)NC2CCCCC2)cc1`, the AC90 is > 38 µM (inactive).

Turning to `Cc1cccc(Cn2ccc(NC(=O)c3ccc4c(c3)OCO4)n2)c1`, the AC90 is 20 µM.

In the case of `CCOC(=O)COc1ccc2c(=O)cc(-c3ccccc3)oc2c1`, the AC90 was > 38 µM (inactive).

For `O=C(COc1cccc2ccccc12)Nc1nc2ccccc2[nH]1`, the AC90 is > 38 µM (inactive).

Consider `COC(=O)COc1cccc(NC(=O)c2ccc(Cl)cc2)c1`, for which the AC90 was > 38 µM (inactive).

As for `O=C(Nc1nc2ccccc2[nH]1)c1cccc(Cl)c1`, the AC90 is 11.4 µM.

Test system in another test: not listed separately
Described as above. The note with it: Mycobacterium tuberculosis non-replicating, growth inhibition plate reader; at 23.5 µM (top of the series).
Regarding `Cc1noc(C)c1NC(=O)Nc1ccc2c(c1)C(=O)N(C)[C@H]1CC[C@H](CC(=O)NCc3ccc(Cl)cc3)O[C@H]1CO2`, the activity change, negative = inhibition was -5.96% (inactive).

On to `C[C@@H]1CN([C@@H](C)CO)C(=O)c2ccccc2-c2ccccc2CO[C@H]1CN(C)C(=O)[C@H](C)c1ccccc1`, for which the activity change, negative = inhibition was 6.24% (inactive).

As to `Cc1noc(C)c1NC(=O)Nc1ccc2c(c1)C(=O)N(C)[C@@H]1CC[C@H](CC(=O)NCc3ccc(Cl)cc3)O[C@H]1CO2`, the activity change, negative = inhibition is -0.708% (inactive).

In the case of `Cc1noc(C)c1NC(=O)Nc1ccc2c(c1)C(=O)N(C)[C@@H]1CC[C@@H](CC(=O)NCc3ccc(Cl)cc3)O[C@H]1CO2`, the activity change, negative = inhibition is -4.47% (inactive).

On to `CNC[C@H]1OCCCC[C@@H](C)Oc2ccc(NC(=O)CCCN(C)C)cc2C(=O)N([C@H](C)CO)C[C@@H]1C`, for which the activity change, negative = inhibition was 0.469% (inactive).

Staying with this test, now noted: Mycobacterium tuberculosis non-replicating, growth inhibition plate reader; at 26 µM (top of the series).
As to `COc1ccccc1C#Cc1ccc([C@H]2[C@@H](CO)N(C(=O)C3CC3)[C@H]2C#N)cc1`, the activity change, negative = inhibition is -16.4% (inactive).

As to `C[C@@H]1CN([C@H](C)CO)C(=O)c2ccccc2-c2ccccc2CO[C@@H]1CN(C)C(=O)[C@H](C)c1ccccc1`, the activity change, negative = inhibition is -3.88% (inactive).

Regarding `O=C(C[C@H]1C[C@H]2c3cc(NC(=O)c4cccnc4)ccc3O[C@H]2[C@H](CO)O1)NCC(F)(F)F`, the activity change, negative = inhibition is 10.5% (inactive).

For `O=C(C[C@@H]1C[C@H]2c3cc(NC(=O)c4cccnc4)ccc3O[C@H]2[C@H](CO)O1)NCC(F)(F)F`, the activity change, negative = inhibition is 4.14% (inactive).

Turning to `O=C(C[C@H]1C[C@H]2c3cc(NC(=O)c4cccnc4)ccc3O[C@H]2[C@@H](CO)O1)NCC(F)(F)F`, the activity change, negative = inhibition was 4.47% (inactive).

For `Cc1noc(C)c1NC(=O)Nc1ccc2c(c1)C(=O)N(C)[C@@H]1CC[C@H](CC(=O)NCc3ccc(Cl)cc3)O[C@@H]1CO2`, the activity change, negative = inhibition is -6.75% (inactive).

`C[C@H](C(=O)N(C)C[C@H]1OCc2ccccc2-c2ccccc2C(=O)N([C@@H](C)CO)C[C@@H]1C)c1ccccc1`: the activity change, negative = inhibition is -9.24% (inactive).

As for `COc1ccccc1C#Cc1ccc([C@H]2[C@@H](C#N)N(C(=O)C3CC3)[C@@H]2CO)cc1`, the activity change, negative = inhibition is -31.8% (inactive).

Consider `Cc1noc(C)c1NC(=O)Nc1ccc2c(c1)C(=O)N(C)[C@H]1CC[C@H](CC(=O)NCc3ccc(Cl)cc3)O[C@@H]1CO2`, for which the activity change, negative = inhibition is -8.85% (inactive).

As for `COc1ccccc1C#Cc1ccc([C@@H]2[C@@H](C#N)N(C(=O)C3CC3)[C@@H]2CO)cc1`, the activity change, negative = inhibition was -12.4% (inactive).

For `CNC[C@@H]1OCCCC[C@@H](C)Oc2ccc(NC(=O)CCCN(C)C)cc2C(=O)N([C@H](C)CO)C[C@H]1C`, the activity change, negative = inhibition was -0.491% (inactive).

Regarding `CNC[C@@H]1OCCCC[C@@H](C)Oc2ccc(NC(=O)CCCN(C)C)cc2C(=O)N([C@H](C)CO)C[C@@H]1C`, the activity change, negative = inhibition is -5.36% (inactive).

Regarding `Cc1noc(C)c1NC(=O)Nc1ccc2c(c1)C(=O)N(C)[C@@H]1CC[C@@H](CC(=O)NCc3ccc(Cl)cc3)O[C@@H]1CO2`, the activity change, negative = inhibition is -1.24% (inactive).

On to `C[C@H](C(=O)N(C)C[C@H]1OCc2ccccc2-c2ccccc2C(=O)N([C@H](C)CO)C[C@H]1C)c1ccccc1`, for which the activity change, negative = inhibition is -2.72% (inactive).

The same test, now with this note: Mycobacterium tuberculosis non-replicating, growth inhibition plate reader; at 38 µM (top of the series).
In the case of `NC(=O)COc1ccc2cc(-c3ccc(F)cc3)c(=O)oc2c1`, the activity change, negative = inhibition is -7.91% (inactive).
